From the supplement of paper PMC10307832

How the values were obtained:
Assay in all cases: relative viability (nuclei count vs DMSO), 5 days (fraction); higher = more cells survive
Olaparib + Phenformin = compound: O=C(c1cc(Cc2n[nH]c(=O)c3ccccc23)ccc1F)N1CCN(C(=O)C2CC2)CC1 [Olaparib] + N=C(N)NC(=N)NCCc1ccccc1 [Phenformin] (partner 250 µM)
Outline: (§1)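 Relative viability is defined as nuclei in treated wells over nuclei in vehicle wells. Duplicate plates were run and medians reported. Lung cancer cell lines in 1536-well plates were dosed by pin tool one day after seeding, with one drug or with a fixed anchor-drug dose plus five library-drug doses (not always all listed) in √10 steps, and nuclei were counted after 5 days.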

Carfilzomib + Lapatinib = compound: CC(C)C[C@H](NC(=O)[C@H](CCc1ccccc1)NC(=O)CN1CCOCC1)C(=O)N[C@@H](Cc1ccccc1)C(=O)N[C@@H](CC(C)C)C(=O)[C@@]1(C)CO1 [Carfilzomib] + CS(=O)(=O)CCNCc1ccc(-c2ccc3ncnc(Nc4ccc(OCc5cccc(F)c5)c(Cl)c4)c3c2)o1 [Lapatinib] (partner 2 µM)
Outline: as §1

Crizotinib + Decitabine = compound: C[C@@H](Oc1cc(-c2cnn(C3CCNCC3)c2)cnc1N)c1c(Cl)ccc(F)c1Cl [Crizotinib] + Nc1ncn([C@H]2C[C@H](O)[C@@H](CO)O2)c(=O)n1 [Decitabine] (partner 2 µM)
Outline: as §1

Carfilzomib + Pemetrexed = compound: CC(C)C[C@H](NC(=O)[C@H](CCc1ccccc1)NC(=O)CN1CCOCC1)C(=O)N[C@@H](Cc1ccccc1)C(=O)N[C@@H](CC(C)C)C(=O)[C@@]1(C)CO1 [Carfilzomib] + Nc1nc2[nH]cc(CCc3ccc(C(=O)N[C@@H](CCC(=O)O)C(=O)O)cc3)c2c(=O)[nH]1 [Pemetrexed] (partner 0.2 µM)
Outline: as §1

| Cell Line | relative viability (Olaparib + Phenformin; first compound 0.08 µM) | relative viability (Olaparib + Phenformin; first compound 0.253 µM) | relative viability (Olaparib + Phenformin; first compound 2.53 µM) | relative viability (Olaparib + Phenformin; first compound 8 µM) | relative viability (Carfilzomib + Lapatinib; first compound 0.001 µM) | relative viability (Carfilzomib + Lapatinib; first compound 0.003162 µM) | relative viability (Carfilzomib + Lapatinib; first compound 0.01 µM) | relative viability (Carfilzomib + Lapatinib; first compound 0.03162 µM) | relative viability (Carfilzomib + Lapatinib; first compound 0.1 µM) | relative viability (Crizotinib + Decitabine; first compound 0.01 µM) | relative viability (Crizotinib + Decitabine; first compound 0.03162 µM) | relative viability (Crizotinib + Decitabine; first compound 0.1 µM) | relative viability (Crizotinib + Decitabine; first compound 0.3162 µM) | relative viability (Crizotinib + Decitabine; first compound 1 µM) | relative viability (Carfilzomib + Pemetrexed; first compound 0.001 µM) | relative viability (Carfilzomib + Pemetrexed; first compound 0.003162 µM) | relative viability (Carfilzomib + Pemetrexed; first compound 0.01 µM) | relative viability (Carfilzomib + Pemetrexed; first compound 0.03162 µM) | relative viability (Carfilzomib + Pemetrexed; first compound 0.1 µM) |
| --- | --- | --- | --- | --- | --- | --- | --- | --- | --- | --- | --- | --- | --- | --- | --- | --- | --- | --- | --- |
| NCI-H2009 | 0.557 | 0.49 | 0.438 | 0.386 | 1.02 | 1.37 | 0.828 | 0.0609 | 0.0756 | 0.382 | 0.372 | 0.348 | 0.387 | 0.392 | 1.06 | 1.05 | 1.04 | 0.868 | 0.124 |
| NCI-H2023 | 0.466 | 0.36 | 0.391 | 0.359 | 0.734 | 0.979 | 0.925 | 0.302 | 0.0574 | 0.186 | 0.236 | 0.272 | 0.202 | 0.255 | 0.237 | 0.247 | 0.227 | 0.141 | 0.0695 |
| NCI-H2085 | 0.837 | 0.69 | 0.682 | 0.625 | 0.663 | 0.843 | 0.714 | 0.444 | 0.252 | 0.565 | 0.518 | 0.554 | 0.54 | 0.595 | 0.784 | 0.941 | 0.968 | 0.54 | 0.301 |
| NCI-H2087 | 0.633 | 0.42 | 0.436 | 0.383 | 0.823 | 1.35 | 0.829 | 0.112 | 0.116 | 0.259 | 0.247 | 0.252 | 0.194 | 0.274 | 0.624 | 0.656 | 0.57 | 0.0837 | 0.0365 |
| NCI-H2126 | 0.615 | 0.549 | 0.506 | 0.588 | 0.75 | 0.798 | 0.784 | 0.765 | 0.513 | 0.51 | 0.568 | 0.579 | 0.565 | 0.591 | 0.612 | 0.702 | 0.678 | 0.617 | 0.424 |
| NCI-H2170 | 0.458 | 0.355 | 0.431 | 0.385 | 0.264 | 0.263 | 0.269 | 0.312 | 0.207 | 0.407 | 0.475 | 0.467 | 0.402 | 0.471 | 0.262 | 0.277 | 0.254 | 0.24 | 0.183 |
| NCI-H2347 | 0.458 | 0.339 | 0.313 | 0.347 | 0.976 | 1.09 | 0.979 | 0.306 | 0.51 | 0.69 | 0.616 | 0.674 | 0.608 | 0.661 | 0.456 | 0.44 | 0.423 | 0.403 | 0.272 |
| NCI-H2405 | 0.432 | 0.373 | 0.388 | 0.426 | – | 1.42 | 1.05 | 0.645 | 0.152 | 0.717 | 0.698 | 0.717 | 0.727 | 0.734 | 1.02 | 1.14 | 1.04 | 0.898 | 0.205 |
| NCI-H3122 | 0.425 | 0.362 | 0.344 | 0.306 | 1.03 | 0.942 | 1.09 | 0.978 | 0.806 | 0.316 | 0.408 | 0.456 | 0.409 | 0.453 | 0.194 | 0.198 | 0.207 | 0.189 | 0.154 |
| PC-3 [JPC-3] | 0.486 | 0.458 | 0.481 | 0.423 | 0.42 | 0.455 | 0.463 | 0.435 | 0.209 | 0.794 | 0.809 | 0.839 | – | 0.865 | 1.04 | 1.1 | 1.23 | 0.642 | 0.294 |
| PC-14 | 0.79 | 0.384 | 0.609 | 0.519 | 0.372 | 0.301 | 0.317 | 0.301 | 0.0926 | 0.182 | 0.248 | 0.225 | 0.244 | 0.248 | 0.145 | 0.14 | 0.197 | 0.0596 | 0.0657 |
| RERF-LC-KJ | 0.406 | 0.465 | 0.433 | 0.51 | 0.845 | 0.836 | 0.894 | 0.841 | 0.378 | 0.737 | 0.635 | 0.569 | 0.585 | 0.7 | 0.444 | 0.51 | 0.489 | 0.368 | 0.248 |
| SK-LU-1 | 0.612 | 0.473 | 0.569 | 0.365 | 0.931 | 0.944 | 0.729 | 0.127 | 0.191 | 0.648 | 0.715 | 0.634 | 0.599 | 0.63 | 0.946 | 1.03 | 0.978 | 0.258 | 0.182 |
| SK-MES-1 | 0.745 | 0.56 | 0.628 | 0.484 | 0.451 | 0.469 | 0.443 | 0.43 | 0.267 | 0.318 | 0.378 | 0.367 | 0.388 | 0.335 | 1.02 | 1.1 | 1.14 | 0.786 | 0.177 |
| SW 1573 | 0.444 | 0.373 | 0.266 | 0.258 | 1.17 | 1.22 | 1.04 | 1.03 | 0.121 | 0.431 | 0.529 | 0.483 | 0.404 | 0.456 | 0.809 | 0.927 | 0.613 | 0.071 | 0.0521 |
| UMC-11 | 0.36 | 0.31 | 0.294 | 0.229 | 0.857 | 1.02 | 0.783 | 0.509 | 0.182 | 0.694 | 0.593 | 0.521 | – | 0.643 | 0.803 | 0.928 | 0.881 | 0.652 | 0.251 |
